IC50 data for six compounds are collected here from ChEMBL document CHEMBL4251691, “Thiazole Derivatives as Inhibitors for the Treatment of Cancer Cells Resistant” (ACS Med Chem Lett, 2018).

Where only a bound is given, the exact number is not on record here.

The target in this test is L-lactate dehydrogenase (Homo sapiens, UniProt V9HWB9). Nature of the test: Inhibition of LDH (unknown origin) assessed as reduction in lactate production by cell-based assay.
Take `CC(=O)c1cc(-c2nn(-c3nc(C(=O)O)cs3)c(CC3CC3)c2Cc2ccc(S(N)(=O)=O)c(F)c2)ccc1F`: the IC50 was < 1000 nM. The result for `NS(=O)(=O)c1ccc(Cc2c(-c3ccc(F)c(C4=CCC(F)(F)CC4)c3)nn(-c3nc(C(=O)O)cs3)c2CC2CC2)cc1F` reads < 1000 nM; that for `CC1CC=C(c2cc(-c3nn(-c4nc(C(=O)O)cs4)c(CC4CC4)c3Cc3ccc(S(N)(=O)=O)c(F)c3)ccc2F)CC1` (stereo unspecified), < 1000 nM. The result for `Cc1ccc(-c2cc(-c3nn(-c4nc(C(=O)O)cs4)c(CC4CC4)c3Cc3ccc(S(N)(=O)=O)c(F)c3)ccc2F)cc1F` reads < 1000 nM; that for `CC1CCCC=C1c1cc(-c2nn(-c3nc(C(=O)O)cs3)c(CC3CC3)c2Cc2ccc(S(N)(=O)=O)c(F)c2)ccc1F` (stereo unspecified), < 1000 nM. Take `Cc1ccc(/C=C/c2cccc(-c3nn(-c4nc(C(=O)O)cs4)c(CC4CC4)c3Cc3ccc(S(N)(=O)=O)c(F)c3)c2)s1`: the IC50 is < 1000 nM.
